target: T1, PI3Kα (p110α/p85α) (Homo sapiens, UniProt P42336); test: HTRF assay, potency against active PI3Kα; format: biochemical; conditions: [ATP]=50 μM, read-out: PI3Kα Inhibition
T1 construct: purchased BPS Bioscience or Millipore
Method: Compounds of the present invention are assayed as inhibitors of PI3 kinases using the following general protocol.
Homogeneous Time Resolved Fluorescence (HTRF) Assay Protocol for Potency Assessment Against the Active Forms of PI3Kα, PI3Kβ, and PI3Kγ
The protocol below describes an end-point, competition-binding HTRF assay used to measure inherent potency of test compounds against active PI3Kα (p110α/p85α), PI3Kβ (p110β/p85α), and PI3Kγ (p120γ) enzymes. The mechanics of the assay platform are best described by the vendor (Millipore, Billerica, Mass.) on their website at the following URL: www.millipore.com/coa/tech1/74jt4z.
Briefly, Stop solution (Stop A, #33-007 and Stop B, #33-009; 3:1 ratio) and Detection Mix (from DMC, #33-015 with DMA, #33-011 and DMB, #33-013; 18:1:1 ratio) were prepared as recommended by the manufacturer about 2 hrs prior to use. Additionally, 1× reaction buffer (from 4× buffer stock #33-003), 1.4× stocks of PI3Kα, PI3Kβ, and PI3Kγ enzymes from BPS Bioscience (San Diego, Calif.) or Millipore (Billerica, Mass.) with di-C8-PIP2 lipid substrate (#33-005), and a 4×ATP solution (#A7699 Sigma/Aldrich; St. Louis, Mo.) were prepared in 1× reaction buffer. 15 μL of PI3K enzymes and lipid substrate mix were pre-incubated in a Corning (#3573) 384-well, black, non-treated microtiter plate (Corning, N.Y.) for 30 min at 25° C. with a 0.5 μL volume of 50% DMSO and serially diluted compounds prepared in 50% DMSO. Lipid kinase reactions were started with the addition of 5 μL of ATP solution, mixed for 15 sec on a rotary plate shaker and incubated for 30-60 minutes at 25° C. Next, reactions were stopped with a 5 μL addition of Stop solution immediately followed by a 5 μL volume of Detection Mix. Stopped reactions were equilibrated for 1 and 18 hrs at room temperature and read in a Synergy^4 plate reader from BioTek (Winooski, Vt.) at λex 330-80/λem 620-35 and λem 665-7.5. At the conclusion of each assay, the HTRF ratio from fluorescence emission values for each well was calculated and % Inhibition determined from averaged controls wells (+/−PI3K enzyme). % Inhibition values for each compound were then plotted against inhibitor concentration to estimate IC50 from log [Inhibitor]vs Response, Variable Slope model in GraphPad Prism from GraphPad Software (San Diego, Calif.).
[Reagent] used in optimized protocol:
(ATP KMapp for both enzymes was estimated to be 40-70 μM)

T1 sequence (P42336 whole entry): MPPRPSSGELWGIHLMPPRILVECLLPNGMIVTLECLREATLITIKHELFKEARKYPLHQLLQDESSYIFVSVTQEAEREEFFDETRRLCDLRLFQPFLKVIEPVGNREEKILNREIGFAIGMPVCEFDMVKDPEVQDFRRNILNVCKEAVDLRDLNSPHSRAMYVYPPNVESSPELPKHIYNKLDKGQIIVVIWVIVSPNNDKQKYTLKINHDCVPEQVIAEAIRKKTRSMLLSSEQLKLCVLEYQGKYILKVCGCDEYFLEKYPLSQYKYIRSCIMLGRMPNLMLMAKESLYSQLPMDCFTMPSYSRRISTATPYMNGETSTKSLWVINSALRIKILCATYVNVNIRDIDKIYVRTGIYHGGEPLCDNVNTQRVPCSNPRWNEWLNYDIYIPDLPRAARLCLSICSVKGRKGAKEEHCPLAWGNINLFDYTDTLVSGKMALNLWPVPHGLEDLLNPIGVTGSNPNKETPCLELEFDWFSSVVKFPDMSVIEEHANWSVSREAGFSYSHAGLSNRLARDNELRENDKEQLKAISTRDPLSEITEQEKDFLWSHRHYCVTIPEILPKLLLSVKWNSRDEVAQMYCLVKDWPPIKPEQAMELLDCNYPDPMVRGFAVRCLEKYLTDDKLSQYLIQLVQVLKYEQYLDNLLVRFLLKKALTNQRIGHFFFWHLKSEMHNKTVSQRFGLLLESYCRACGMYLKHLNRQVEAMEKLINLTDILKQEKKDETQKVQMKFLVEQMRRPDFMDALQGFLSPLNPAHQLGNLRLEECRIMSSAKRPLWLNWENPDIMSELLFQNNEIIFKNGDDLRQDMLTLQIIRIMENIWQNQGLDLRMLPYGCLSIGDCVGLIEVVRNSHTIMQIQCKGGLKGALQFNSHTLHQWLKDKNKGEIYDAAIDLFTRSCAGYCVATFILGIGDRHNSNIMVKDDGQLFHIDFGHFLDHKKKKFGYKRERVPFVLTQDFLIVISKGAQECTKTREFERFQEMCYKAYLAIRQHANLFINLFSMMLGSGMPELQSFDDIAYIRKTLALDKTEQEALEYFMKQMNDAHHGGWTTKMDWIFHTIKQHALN
T1 sequence (P27986 whole entry partner): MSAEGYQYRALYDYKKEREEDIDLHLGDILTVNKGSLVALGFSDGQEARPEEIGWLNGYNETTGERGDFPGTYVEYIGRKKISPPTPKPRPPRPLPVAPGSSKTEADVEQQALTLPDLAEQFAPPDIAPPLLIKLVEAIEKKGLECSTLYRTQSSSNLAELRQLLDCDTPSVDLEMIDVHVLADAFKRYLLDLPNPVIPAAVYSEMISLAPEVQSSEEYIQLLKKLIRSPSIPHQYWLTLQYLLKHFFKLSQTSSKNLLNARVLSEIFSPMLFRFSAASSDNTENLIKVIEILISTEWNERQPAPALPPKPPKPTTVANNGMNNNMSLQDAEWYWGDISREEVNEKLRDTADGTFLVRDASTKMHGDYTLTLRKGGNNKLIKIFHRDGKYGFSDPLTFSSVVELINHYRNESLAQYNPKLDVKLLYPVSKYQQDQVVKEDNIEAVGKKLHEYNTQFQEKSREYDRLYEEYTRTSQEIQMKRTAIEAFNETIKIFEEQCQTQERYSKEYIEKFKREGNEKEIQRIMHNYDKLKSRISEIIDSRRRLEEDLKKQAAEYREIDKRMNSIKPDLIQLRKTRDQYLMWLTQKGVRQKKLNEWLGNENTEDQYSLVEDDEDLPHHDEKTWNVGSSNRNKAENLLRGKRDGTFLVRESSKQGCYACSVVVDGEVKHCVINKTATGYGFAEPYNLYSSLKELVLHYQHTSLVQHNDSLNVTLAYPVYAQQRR

`CC(C)=CC(=O)CCC(=O)N1CCN(c2ccc(-c3cc(-c4cnc(N)nc4)nc(N4CCOCC4)c3)cc2)CC1` [I-1, 1-(4-(4-(2-(2-aminopyrimidin-5-yl)-6-morpholinopyridin-4-yl)phenyl)piperazin-1-yl)-6-methylhept-5-ene-1,4-dione] and `C/C=C/C(=O)Nc1ccc(CC(=O)N2CCN(c3cc(-c4cnc(N)nc4)nc(N4CCOCC4)c3)CC2)cc1` [I-10] fall in the same range of IC50: 100 to 1000 nM for the first, 100 to 1000 nM for the second.

First: CC(C)=CC(=O)CCC(=O)Nc1ccc(C#Cc2cc(-c3cnc(N)nc3)nc(N3CCOCC3)c2)cc1 [I-2, N-(4-((2-(2-aminopyrimidin-5-yl)-6-morpholinopyridin-4-yl)ethynyl)phenyl)-6-methyl-4-oxohept-5-enamide]
Second: CC(C)/C(=C\C(=O)Nc1ccc(CC(=O)N2CC=C(c3cc(-c4cnc(N)nc4)nc(N4CCOCC4)c3)CC2)cc1)C(F)(F)F [I-8]
The IC50 of the first is lower: 10 to 100 nM for the first, 100 to 1000 nM for the second.

`C/C=C/C(=O)Nc1ccc(CC(=O)N2CC=C(c3cc(-c4cnc(N)nc4)nc(N4CCOCC4)c3)CC2)cc1` [I-3] and `C/C(=C\C(=O)Nc1ccc(CC(=O)N2CC=C(c3cc(-c4cnc(N)nc4)nc(N4CCOCC4)c3)CC2)cc1)C(F)(F)F` [I-6] fall in the same range of IC50: 100 to 1000 nM for the first, 100 to 1000 nM for the second.

First: Nc1ncc(-c2cc(C3=CCN(C(=O)Cc4ccc(NC(=O)/C=C(\C5CC5)C(F)(F)F)cc4)CC3)cc(N3CCOCC3)n2)cn1 [I-4]
Second: C/C(=C/C(=O)Nc1ccc(CC(=O)N2CC=C(c3cc(-c4cnc(N)nc4)nc(N4CCOCC4)c3)CC2)cc1)C(F)(F)F [I-7]
The IC50 of the first is lower: 10 to 100 nM for the first, 100 to 1000 nM for the second. The first is the more potent here.

`Nc1ncc(-c2cc(C3=CCN(C(=O)Cc4ccc(NC(=O)/C=C(\c5ccccc5)C(F)(F)F)cc4)CC3)cc(N3CCOCC3)n2)cn1` [I-5] and `Nc1ncc(-c2cc(N3CCN(C(=O)Cc4ccc(NC(=O)/C=C(\c5ccccc5)C(F)(F)F)cc4)CC3)cc(N3CCOCC3)n2)cn1` [I-12] fall in the same range of IC50: 10 to 100 nM for the first, 10 to 100 nM for the second.

Compared with `CC(C)/C(=C/C(=O)Nc1ccc(CC(=O)N2CC=C(c3cc(-c4cnc(N)nc4)nc(N4CCOCC4)c3)CC2)cc1)C(F)(F)F` [I-9], `CC(C)/C(=C\C(=O)Nc1ccc(CC(=O)N2CCN(c3cc(-c4cnc(N)nc4)nc(N4CCOCC4)c3)CC2)cc1)C(F)(F)F` [I-15] is higher in IC50: 10 to 100 nM for the first, 100 to 1000 nM for the second.

Compared with `Nc1ncc(-c2cc(N3CCN(C(=O)Cc4ccc(NC(=O)/C=C(\C5CC5)C(F)(F)F)cc4)CC3)cc(N3CCOCC3)n2)cn1` [I-11], `C/C(=C\C(=O)Nc1ccc(CC(=O)N2CCN(c3cc(-c4cnc(N)nc4)nc(N4CCOCC4)c3)CC2)cc1)C(F)(F)F` [I-13] is higher in IC50: 10 to 100 nM for the first, 100 to 1000 nM for the second. The first is the more potent here.

First: C/C(=C/C(=O)Nc1ccc(CC(=O)N2CCN(c3cc(-c4cnc(N)nc4)nc(N4CCOCC4)c3)CC2)cc1)C(F)(F)F [I-14]
Second: CC(C)/C(=C/C(=O)Nc1ccc(CC(=O)N2CCN(c3cc(-c4cnc(N)nc4)nc(N4CCOCC4)c3)CC2)cc1)C(F)(F)F [I-16]
The IC50 of the first is higher: 100 to 1000 nM for the first, 10 to 100 nM for the second.

`C=CC(=O)Nc1ccc2sc(N3CCN(c4cc(-c5cnc(N)nc5)nc(N5CCOCC5)c4)CC3)nc2c1` [I-17] was tested, and the IC50 was 10 to 100 nM.

target: T2, PI3Kα (Homo sapiens, UniProt P42336); test: Mass spectrometry for PI3K (covalent modification of intact protein, MALDI); format: binding; conditions: not given
T2 construct: purchased Millipore 14-602
Method: Mass Spectrometry for PI3K
Intact PI3Kα (Millipore, 14-602) was incubated for 1 hr at a 10-fold excess of I-11 to protein. Aliquots (5 μl) of the samples were diluted with 15 μl of 0.2% TFA prior to micro C4 ZipTipping directly onto the MALDI target using Sinapinic acid as the desorption matrix (10 mg/mL in 0.1% TFA:Acetonitrile 50:50). […] Other compounds that modify PI3Kα >50% after 1 hr include I-1, I-2, I-12, I-17, and I-19.

T2 sequence (P42336 whole entry): as the sequence (P42336 whole entry) above
T2 sequence (P27986 whole entry partner): as the sequence (P27986 whole entry partner) above

In the case of `Nc1ncc(-c2cc(N3CCN(C(=O)Cc4ccc(NC(=O)/C=C(\C5CC5)C(F)(F)F)cc4)CC3)cc(N3CCOCC3)n2)cn1` [I-11], the “covalent modification of PI3Kα by MS analysis (FIG. 1)” value is reported as “confirming covalent modification”.

same assay, conditions: intact PI3Kα incubated 1 hr, 10-fold excess of compound to protein

In the case of `Nc1ncc(-c2cc(N3CCN(C(=O)Cc4ccc(NC(=O)/C=C(\C5CC5)C(F)(F)F)cc4)CC3)cc(N3CCOCC3)n2)cn1` [I-11], the “modification of PI3Kα” value is reported as 87%.

same assay, conditions: intact PI3Kα incubated 1 hr, 10-fold excess of compound, MALDI centroid mass

With `Nc1ncc(-c2cc(N3CCN(C(=O)Cc4ccc(NC(=O)/C=C(\C5CC5)C(F)(F)F)cc4)CC3)cc(N3CCOCC3)n2)cn1` [I-11] the “mass shift of PI3K after incubation with compound” value was 555 Da.
